Source: paper PMC11766344, “HGS Promotes Tumor Growth, Whereas the Coiled-Coil Domain and Its Oligopeptide of HGS Suppress It” (International Journal of Molecular Sciences, 2025)
“Also recorded” adds a separate entry of the source.

Legend:
COLO 205 cells = assay: In vitro anchorage-independent growth inhibition test, ULAS plate; type: cell-based, human; details: 2 × 10^3 cells/well, ULAS 96-well plate, Opti-MEM 5% FBS, 7 days, 37 °C, Cell Counting Kit-8 A450 nm
Description: The effect of OP12-462 on anchorage-independent growth was examined; normal cells can proliferate in an anchorage-dependent manner but cannot in an anchorage-independent manner, whereas cancer cells can both proliferate in the anchorage-independent manner and form tumors. In normal (adhesion) plates, cancer cells adhere to the surface of plates and proliferate in the anchorage-dependent manner, so the anchorage-independent growth ability of the cancer cells cannot be observed. In ultra-low attachment surface (ULAS) plates, the cancer cells cannot adhere to the surface nor proliferate in the anchorage-dependent manner but can proliferate in the anchorage-independent manner. By measuring the proliferation ability of cancer cells on the ULAS plates, we can determine the anchorage-independent growth ability of the cells. […] Next, the effect of OP12-462 on tumor growth was examined. COLO 205 cells were inoculated subcutaneously into the back of BALB/cSlc-nu/nu nude mice. […]
After 7 days, 0.1 mL of Cell Counting Kit-8 solution (5-fold PBS diluted solution) was added, and the absorbance A450 nm was immediately measured and set as the T0 blank value. After incubating at 37 °C for 2 h, the absorbance A450 nm was measured again and set as T2. The absorbance difference between T2 and T0 was defined as the anchorage-independent or anchorage-dependent growth activity value.

MDCK normal cells = assay: Anchorage-dependent growth in normal adhesion plates, MDCK normal cells; type: cell-based, canine
Description: (§1) The effect of OP12-462 on anchorage-independent growth was examined; normal cells can proliferate in an anchorage-dependent manner but cannot in an anchorage-independent manner, whereas cancer cells can both proliferate in the anchorage-independent manner and form tumors. In normal (adhesion) plates, cancer cells adhere to the surface of plates and proliferate in the anchorage-dependent manner, so the anchorage-independent growth ability of the cancer cells cannot be observed. In ultra-low attachment surface (ULAS) plates, the cancer cells cannot adhere to the surface nor proliferate in the anchorage-dependent manner but can proliferate in the anchorage-independent manner. By measuring the proliferation ability of cancer cells on the ULAS plates, we can determine the anchorage-independent growth ability of the cells. […] Next, the effect of OP12-462 on tumor growth was examined. COLO 205 cells were inoculated subcutaneously into the back of BALB/cSlc-nu/nu nude mice. The day when the tumor volume exceeded 250 mm^3 was set as day 0, and OP12-462 (50 mg/kg body weight) in 0.2 mL of PBS solution or vehicle (PBS) was administered once a day into the tail vein for 10 days from day 0 to day 9.

COLO205 cells = assay: Oligopeptide tumor growth inhibition test, subcutaneous COLO205 tumors in nude mice; type: in vivo, nude mice (BALB/cSlc-nu/nu)
Description: The effect of OP12-462 on anchorage-independent growth was examined; normal cells can proliferate in an anchorage-dependent manner but cannot in an anchorage-independent manner, whereas cancer cells can both proliferate in the anchorage-independent manner and form tumors. In normal (adhesion) plates, cancer cells adhere to the surface of plates and proliferate in the anchorage-dependent manner, so the anchorage-independent growth ability of the cancer cells cannot be observed. In ultra-low attachment surface (ULAS) plates, the cancer cells cannot adhere to the surface nor proliferate in the anchorage-dependent manner but can proliferate in the anchorage-independent manner. By measuring the proliferation ability of cancer cells on the ULAS plates, we can determine the anchorage-independent growth ability of the cells. […]
After a 2-week acclimation period, 8-week-old female C57BL/6 or nude mice were randomly divided into groups. […] Tumor formation was monitored for 4 or 5 weeks after the inoculation by measuring the width (W) and length (L) of the tumors with W < L. The tumor volume was calculated according to the formula (W2 × L × π/6).
The cells were resuspended at a cell density of 1 × 10^6 cells in 100 µL of PBS and were inoculated subcutaneously into the flank region of 8-week-old female nude mice. […] Tumor sizes were measured daily.

[1] = Body weight and acute toxicity in tumor-bearing nude mice given OP12-462; type: in vivo, nude mice (BALB/cSlc-nu/nu)
Description: as §1
The cells were resuspended at a cell density of 1 × 10^6 cells in 100 µL of PBS and were inoculated subcutaneously into the flank region of 8-week-old female nude mice. The day when the tumor volume exceeded 250 mm^3 was set as Day 0, and oligopeptide OP12-462 (50 mg/kg body weight) was administered as a 0.2 mL PBS solution in the tail vein once daily for 10 days from Day 0 to Day 9. Tumor sizes were measured daily.

normal or cancer cells = assay: Acute toxicity to cells in vitro; type: cell-based
Description: HGS/C and oligopeptides constituting HGS/C, including OP12-462, might be new tumor growth inhibitors that suppress tumor growth by inhibiting the anchorage-independent growth ability of cancer cells rather than directly destroying cancer cells. […] HGS/C and the OP12-462 are novel inhibitors of TGF-β-SMAD and Wnt-β-catenin signal transduction. They not only have a novel tumor growth suppression effect but also have the potential to become novel medicines for diseases, including various fibrosis diseases, whose symptoms worsen owing to the enhancement of these signal transduction pathways. Potential drug targets of EMT in metastasis are now in development. HGS and HGS/C are an inducer and an inhibitor of EMT and tumorigenesis. Therefore, HGS and HGS/C could be good targets of EMT-blocking drugs for clinical application.

## ERRLYYEGLQDK [OP12-462, oligopeptide of 12 amino acid residues (…) constituting the coiled-coil domain of HGS]
COLO 205 cells
  Anchorage-independent growth activity: inhibited the anchorage-independent growth activity of COLO 205 cells (Figure 5b) in a concentration-dependent manner
MDCK normal cells
  Anchorage-dependent growth of MDCK normal cells: did not inhibit
COLO205 cells; 50 mg/kg body weight in 0.2 mL PBS, tail vein, once daily for 10 days (day 0 to day 9), day 0 = tumor volume exceeded 250 mm^3, nude mice, n = 5
  Tumor growth (tumor volume) versus vehicle: statistically significant from the third day onwards; also recorded: significantly suppressed the growth of the tumor
COLO205 cells; 50 mg/kg tail vein once daily day 0 to day 9, nude mice with COLO205 tumors
  Duration of tumor growth suppression after end of administration: for more than two weeks after the administration had ended
[1]; 50 mg/kg tail vein for 10 consecutive days
  Average body weight / weight loss: no change in the average body weight; also recorded: did not result in weight loss
[1]; 50 mg/kg tail vein once daily for 10 days
  Acute toxicity due to administration: No acute toxicity
[1]; ten days after administration, 50 mg/kg tail vein once daily for 10 days
  Changes in body weight of each mouse: −0.4% to +2
Normal or cancer cells
  Acute toxicity to normal or cancer cells in vitro: no acute toxicity
